According to article PMC9268166, “Modeling of Anticancer Sulfonamide Derivatives Lipophilicity by Chemometric and Quantitative Structure-Retention Relationships Approaches” (Molecules, 2022):

How the values were obtained:
[1] = IAM chromatography (IAM-HPLC), IAM.PC.DD2 column; format: physicochemical; conditions: for CHI (CHIIAM), Table S2: IAM chromatography, from mean of three retention times; for logkIAM: logkIAM = 0.045 CHIIAM + 0.42; for CHIIAM: pH 7.4, 30 °C, acetonitrile gradient
Description: (§1) For this reason, the next step of our study concerns the characterization of investigated sulfonamide derivatives using a chromatographic approach. Generally, in RP-HPLC, the interactions between solutes and the stationary phase surface are mainly governed by lipophilicity. Consequently, RP-HPLC is the primary tool for assessing the lipophilicity of xenobiotics. […] Generally, the chemical character of target solutes determines interactions between the molecule and the stationary phase that may occur. Considering the large variety of RP-HPLC beds and differences in specific surface area, the energy of the sorbent’s intermolecular interactions between solutes and chemical structures, four different reversed-phase stationary phases and IAM column were investigated during this study. The lipophilicity index was presented as a logkw value, so the retention factor was extrapolated to the pure water after calculation using a protocol based on two gradient measurements and DryLab software.
(§2) Since the biomimetic chromatography experiments are carried out at physiological pH to compare obtained results, all chromatographic experiments have been carried out at pH 7.4. […] Consequently, the chromatography lipophilicity indices refer to the distribution coefficient (logD) values, which better reflect the lipophilicity of ionized substances under physiological conditions.
(§3) All HPLC experiments were carried out using a Prominence-1 LC-2030C 3D HPLC system (Shimadzu, Japan) equipped with a DAD detector and controlled by the LabSolution system (version 5.90 Shimadzu, Japan). The stock solutions of solutes were diluted to obtain 100 μg/mL concentrations, and the injected volume was 10 μL. During this study, six different columns in terms of chemical modification of stationary phases were used. Retention times (tR) of investigated sulfonamides were collected, and their detection in all systems was performed at the wavelength characteristic for each compound, summarized in Table S1. For all chromatography systems, analysis was carried out at 40 °C, except for IAM chromatography, in which oven temperature was set to 30 °C. The CHIIAM and CHI18 indices of the target sulfonamides derivatives were obtained using the protocol proposed by Valko and co-workers. C18 chromatography was performed on a Waters-C18 column (150 mm × 3.9 mm; 5.0 µm; Symmetry; USA), with a 1.5 mL/min flow rate. The mobile phase was ammonium acetate buffer (50 mM) at pH 7.4 and acetonitrile as an organic modifier. The linear gradient from 2 to 98% ACN was applied from 0 to 30 min. IAM chromatography was executed on an IAM.PC.DD2 column ([…] × 4.6 mm; 10.0 µm; Regis Technologies, Morton Grove, IL, USA) additionally equipped with an IAM guard column with the same flow rate of 1.5 mL/min. The mobile phase was sodium phosphate buffer (10 mM) at pH 7.4 and acetonitrile as the organic phase. The linear gradient from 0 to 85% was applied within 5.25 min.

[2] = C18 chromatography (RP-HPLC), chromatographic hydrophobicity index; format: physicochemical; conditions: for chromatographic logD: Waters Symmetry C18 column, CHI log D = 0.0525 CHIC18 − 1.467, pH 7.4; for CHIC18: pH 7.4, 40 °C, acetonitrile gradient
Description: as §1, §2, §3

[3] = C8 chromatography (RP-HPLC), logkw from two gradients with DryLab; format: physicochemical; conditions: for logkw, Table S4: C8 chromatography, pH 7.4, short and long gradient; for logkwC8: pH 7.4, 40 °C, retention factor extrapolated to 0% organic modifier
Description: as §1, §2
(§4) For C8, cyanopropyl, and phenyl chromatography, according to the assumption proposed by Snyder and co-workers, appropriate logkw values (i.e., the retention factor logk extrapolated to 0% organic modifier, as an alternative to logP) were obtained. […] Dwell volume for these HPLC systems was measured at 0.780 mL, whereas the obtained dead times for used HPLC columns were equal to 1.530 min, 1.252 min, and 2.335 min for C8, SB-CN, and UK-Phenyl, respectively. The mobile phase was ammonium acetate buffer (50 mM) at pH 7.4 and acetonitrile as an organic modifier in each system. C8 chromatography was performed on Unison UK-C8 column (150 × 2 mm; 3.0 µm. Imtakt; USA) with 0.3 mL/min flow rate. Analyses were carried out in linear gradient from 30 to 100% within 15 min in short gradient and 30 min in long gradient. The Agilent SB-CN column (150 × 4.6 mm; 3.5 µm; Zorbax; USA) was used for the cyanopropyl chromatography. The CN chromatography analyses were carried out in linear gradient from 20 to 100%, which was applied from 0 to 20 min in short gradient, and from 0 to 40 min in long gradient. The flow rate was 1.5 mL/min. The column Unison UK-Phenyl (150 × 2 mm; 3.0 µm; Imtakt; USA) was used to perform phenyl chromatography. The flow rate was set to 0.2 mL/min. The phenyl analyses were carried out in linear gradient from 40 to 100%, which was applied from 0 to 20 min in short gradient, and from 0 to 40 min in long gradient. Each HPLC analysis was run in triplicate; in Tables S2–S6, obtained retention times are listed, whereas representative chromatograms are shown in Figure 9.

[4] = Cyanopropyl (CN) chromatography, logkw from two gradients with DryLab; format: physicochemical; conditions: for logkw, Table S5: Cyanopropyl chromatography, pH 7.4, short and long gradient; for logkwCN: pH 7.4, 40 °C, retention factor extrapolated to 0% organic modifier
Description: as §1, §2, §4

[5] = Phenyl (Ph) chromatography, logkw from two gradients with DryLab; format: physicochemical; conditions: for logkw, Table S6: Phenyl chromatography, pH 7.4, short and long gradient; for logkwPh: pH 7.4, 40 °C, retention factor extrapolated to 0% organic modifier
Description: as §1, §2, §4

[6] = tested on: human colon cancer (HCT-116); parameters: method as in PMID 29772699, PMID 28122174, PMID 27338337, PMID 26506328; conditions: HCT-116 cell line; cited from earlier work

| Structure (SMILES) | CHI (CHIIAM), Table S2 ([1]; pH 7.4) | logkIAM ([1]; pH 7.4) | chromatographic logD [2] | CHIC18 [2] | logkw, Table S4 [3] | logkwC8 [3] | logkw, Table S5 [4] | logkwCN [4] | logkw, Table S6 [5] | logkwPh [5] | pIC50 [6] | lipophilicity rank by the chromatographic experiments ([1]; based on the experimental data of all chromatographic systems, pH 7.4) | CHIIAM [1] |
| --- | --- | --- | --- | --- | --- | --- | --- | --- | --- | --- | --- | --- | --- |
| CC(=O)NS(=O)(=O)c1cc(C)c(Cl)cc1SCc1cccc2ccccc12 [Compound 26] | 30.6 | 1.80 | 2.95 | 84.10 | 3.655 | 3.66 | 1.763 | 1.76 | 2.870 | 2.87 |  |  |  |
| Cc1ccc2cccnc2c1NS(=O)(=O)c1ccc(-n2cccc2)cc1 [Compound 3] | 42.0 | 2.31 | 3.51 | 94.80 | 4.593 | 4.59 | 2.966 | 2.97 | 5.556 | 5.56 | 4.72 |  |  |
| Cc1cc(S(=O)(=O)Nc2nnc(-c3ccccc3)c(=O)[nH]2)c(SCc2cccc3ccccc23)cc1Cl [Compound 10] | 39.1 | 2.18 | 2.96 | 84.30 | 4.211 | 4.21 | 2.251 | 2.25 | 4.193 | 4.19 | 4.05 |  |  |
| Cc1cc(S(=O)(=O)Nc2nncc(-c3cccc(F)c3)n2)c(SCc2ccc(C(F)(F)F)cc2)cc1Cl [Compound 24] | 38.3 | 2.14 | 3.13 | 87.50 | 4.256 | 4.26 | 2.277 | 2.28 | 4.088 | 4.09 | 4.17 |  |  |
| Cc1ccnc(NS(=O)(=O)c2ccc(-n3cccc3)cc2)n1 [Compound 1] | 19.2 | 1.28 | 1.51 | 56.70 | 2.980 | 2.98 | 1.580 | 1.58 | 2.620 | 2.62 | 4.34 | least lipophilic |  |
| O=C(Nc1ccc(Cl)cc1)c1cc(S(=O)(=O)Nc2nncc(-c3ccc(C(F)(F)F)cc3)n2)c(SCc2ccccc2)cc1Cl [Compound 15] |  | 2.37 | 3.39 | 92.50 | 4.530 | 4.53 | 2.642 | 2.64 | 5.074 | 5.07 | 4.19 |  | 43.40 |
| O=S(=O)(Nc1cccc2cccnc12)c1ccc(-n2cccc2)cc1 [Compound 2] | 45.0 | 2.45 | 3.65 | 97.50 | 4.682 | 4.68 | 4.040 | 4.04 | 6.221 | 6.22 | 6.00 |  |  |
| Cc1cc(S(=O)(=O)Nc2nnc(C)c(=O)[nH]2)c(SCc2cccc3ccccc23)cc1Cl [Compound 9] | 31.4 | 1.83 | 2.33 | 72.30 | 3.692 | 3.69 | 1.850 | 1.85 | 2.880 | 2.88 | 4.07 |  |  |
| COc1ccc(NC(=O)c2cc(S(=O)(=O)Nc3nncc(-c4ccc(OC)cc4)n3)c(SCc3ccccc3)cc2Cl)cc1 [Compound 20] |  | 1.99 | 2.59 | 77.20 | 4.020 | 4.02 | 2.211 | 2.21 | 3.789 | 3.79 | 4.14 |  | 34.90 |
| Cc1cc(S(=O)(=O)NC(=O)C=Cc2ccccc2)c(SCc2cccc3ccccc23)cc1Cl [Compound 27] | 39.6 | 2.20 | 2.37 | 73.10 | 4.279 | 4.28 | 2.313 | 2.31 | 4.460 | 4.46 |  |  |  |
| Cc1ccc2cccc(NS(=O)(=O)c3ccc(-n4cccc4)cc3)c2n1 [Compound 4] | 45.9 | 2.49 | 4.04 | 104.80 | 4.898 | 4.90 | 3.628 | 3.63 | 7.389 | 7.39 | 5.05 |  |  |
